From ChEMBL document CHEMBL1201862, “PubChem BioAssay data set” (2004)
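A five-concentration, 48-hour dose response in 96-well plates underlies each endpoint, interpolated linearly between surrounding concentrations. Abbreviation: GI50, concentration required for 50% inhibition of growth.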 Activity calls are given as the source filed them. Cut-off read from the data, not from the text of the source: active = GI50 up to about 1.1 µM and inactive = higher.

Experiments:
Experiment in all cases: DTP human tumour cell line panel, 48 h
[1] = test system: UO-31
[2] = test system: 786-0
[3] = test system: LOX IMVI
[4] = test system: MOLT-4
[5] = test system: IGROV-1
[6] = test system: EKVX
[7] = test system: SK-OV-3
[8] = test system: HOP-92
[9] = test system: CAKI-1
[10] = test system: NCI-H226
[11] = test system: SR
[12] = test system: SW-620
[13] = test system: U-251
[14] = test system: DU-145
[15] = test system: MDA-N
[16] = test system: T47D
[17] = test system: NCI-H460
[18] = test system: MCF7
[19] = test system: SF-539
[20] = test system: HCT-15

Compound	GI50 [1]	GI50 [2]	GI50 [3]	GI50 [4]	GI50 [5]	GI50 [6]	GI50 [7]	GI50 [8]	GI50 [9]	GI50 [10]	GI50 [11]	GI50 [12]	GI50 [13]	GI50 [14]	GI50 [15]	GI50 [16]	GI50 [17]	GI50 [18]	GI50 [19]	GI50 [20] [µM]
Nc1ccn(C2OC(COP(=O)(O)O)C(O)C2O)c(=O)n1 (stereo not given)	6.98 µM (inactive)	5.31 µM (inactive)	3.08 µM (inactive)	0.0497 µM (active)	40.7 µM (inactive)	> 100 µM (inactive)	42.1 µM (inactive)	17.8 µM (inactive)	14.4 µM (inactive)	3.18 µM (inactive)	3.39 µM (inactive)	> 56.9 µM (inactive)	14.3 µM (inactive)	1.19 µM (inactive)	37.8 µM (inactive)	42 µM (inactive)	0.32 µM (active)	1.31 µM (inactive)	8.05 µM (inactive)	45.5
COc1cc2c(cc1O)NC(=O)[C@@H]1CCCN1C2=O	> 100 µM (inactive)	> 100 µM (inactive)	> 100 µM (inactive)	> 100 µM (inactive)	> 100 µM (inactive)	> 100 µM (inactive)	> 100 µM (inactive)	> 100 µM (inactive)	> 100 µM (inactive)	> 100 µM (inactive)	> 100 µM (inactive)	> 100 µM (inactive)	> 100 µM (inactive)	> 100 µM (inactive)	> 100 µM (inactive)	> 100 µM (inactive)	> 100 µM (inactive)	> 100 µM (inactive)	> 100 µM (inactive)	> 100
Cc1cc(-c2nc3cc(O)ccc3s2)ccc1N	18.7 µM (inactive)	37 µM (inactive)	45 µM (inactive)	96.2 µM (inactive)	33.4 µM (inactive)	10.2 µM (inactive)	19.3 µM (inactive)	76.4 µM (inactive)	34 µM (inactive)	31.4 µM (inactive)	32 µM (inactive)	38 µM (inactive)	30.5 µM (inactive)	39.8 µM (inactive)	29.4 µM (inactive)	22.9 µM (inactive)	29 µM (inactive)	17.6 µM (inactive)	25.5 µM (inactive)	41.2
COc1cc2c(cc1OC)CCc1cc(OC)c(OC)cc1CC2	> 100 µM (inactive)	> 100 µM (inactive)	> 100 µM (inactive)	> 100 µM (inactive)	> 100 µM (inactive)	> 100 µM (inactive)	> 100 µM (inactive)	> 100 µM (inactive)	> 100 µM (inactive)	> 100 µM (inactive)	> 100 µM (inactive)	> 100 µM (inactive)	> 100 µM (inactive)	> 100 µM (inactive)	> 100 µM (inactive)	31.3 µM (inactive)	> 100 µM (inactive)	> 100 µM (inactive)	> 100 µM (inactive)	> 100
CN1CCN(CC(=O)N2CCCn3c2nc2ccccc2c3=O)CC1	> 100 µM (inactive)	> 100 µM (inactive)	> 100 µM (inactive)	> 100 µM (inactive)	> 100 µM (inactive)	> 100 µM (inactive)	> 100 µM (inactive)	48.2 µM (inactive)	> 100 µM (inactive)	52.1 µM (inactive)	> 100 µM (inactive)	> 100 µM (inactive)	> 100 µM (inactive)	> 100 µM (inactive)	> 100 µM (inactive)	> 100 µM (inactive)	> 100 µM (inactive)	> 100 µM (inactive)	> 100 µM (inactive)	> 100
CC(C)N1CCN(c2ccc(OCC3COC(Cn4cncn4)(c4ccc(Cl)cc4Cl)O3)cc2)CC1 (stereo not given) [TERCONAZOLE]	> 21.9 µM (inactive)	4.06 µM (inactive)	12 µM (inactive)	10.9 µM (inactive)	16 µM (inactive)	15.1 µM (inactive)	13.5 µM (inactive)	13.6 µM (inactive)	17.3 µM (inactive)	15 µM (inactive)	3.33 µM (inactive)	15.3 µM (inactive)	12.9 µM (inactive)	16.3 µM (inactive)	4.86 µM (inactive)	18 µM (inactive)	14.6 µM (inactive)	13.2 µM (inactive)	13.3 µM (inactive)	9.53
c1ccc2c(Cc3[nH]c4ccccc4c3Cc3c[nH]c4ccccc34)c[nH]c2c1	3.35 µM (inactive)	1.73 µM (inactive)	2.19 µM (inactive)	1.66 µM (inactive)	1.67 µM (inactive)	2.61 µM (inactive)	3.56 µM (inactive)	3.9 µM (inactive)	2.74 µM (inactive)	6.08 µM (inactive)	2.87 µM (inactive)	1.74 µM (inactive)	2.88 µM (inactive)	1.8 µM (inactive)	2.16 µM (inactive)	2.93 µM (inactive)	1.91 µM (inactive)	11.2 µM (inactive)	2.56 µM (inactive)	2.76
O=c1cc(NNc2ccccc2)[nH]c(=S)[nH]1	> 100 µM (inactive)	4.9 µM (inactive)	16.8 µM (inactive)	35.2 µM (inactive)	79.4 µM (inactive)	98.9 µM (inactive)	> 100 µM (inactive)	32.6 µM (inactive)	20.3 µM (inactive)	> 100 µM (inactive)	22.5 µM (inactive)	20.5 µM (inactive)	45 µM (inactive)	64.9 µM (inactive)	40.6 µM (inactive)	27.1 µM (inactive)	76.2 µM (inactive)	25.9 µM (inactive)	50.2 µM (inactive)	17.8
S=C1NCCN1C(=S)NC1CCCCC1	26.7 µM (inactive)	37.9 µM (inactive)	35.8 µM (inactive)	21.1 µM (inactive)	68.1 µM (inactive)	29.1 µM (inactive)	39.4 µM (inactive)	24.8 µM (inactive)	25.4 µM (inactive)	22.2 µM (inactive)	35.8 µM (inactive)	46 µM (inactive)	37 µM (inactive)	49.8 µM (inactive)	36.9 µM (inactive)	27.7 µM (inactive)	20.3 µM (inactive)	43.1 µM (inactive)	21 µM (inactive)	29
COC(=O)c1c2c(cc3c1CC1(Cc4ccccc4C1=O)C3)CCC2 (stereo not given)	13.9 µM (inactive)	25.2 µM (inactive)	31 µM (inactive)	12.2 µM (inactive)	26.6 µM (inactive)	15.9 µM (inactive)	> 100 µM (inactive)	23 µM (inactive)	10.7 µM (inactive)	2.58 µM (inactive)	15.6 µM (inactive)	31.8 µM (inactive)	56.5 µM (inactive)	> 100 µM (inactive)	8.55 µM (inactive)	52.7 µM (inactive)	29.9 µM (inactive)	43.8 µM (inactive)	71.1 µM (inactive)	21.4
Brc1ccccc1/C=N\C12CC3CC(CC(C3)C1)C2	> 100 µM (inactive)	> 52.8 µM (inactive)	19.9 µM (inactive)	4.75 µM (inactive)	> 100 µM (inactive)	> 100 µM (inactive)	> 100 µM (inactive)	84.7 µM (inactive)	24.8 µM (inactive)	> 100 µM (inactive)	1.15 µM (inactive)	3.9 µM (inactive)	12.9 µM (inactive)	> 100 µM (inactive)	3.38 µM (inactive)	> 100 µM (inactive)	> 100 µM (inactive)	7.24 µM (inactive)	15.5 µM (inactive)	1.99
O=C1/C(=C/c2cccc(Br)c2)CSC/C1=C\c1cccc(Br)c1	2.04 µM (inactive)	3.45 µM (inactive)	1.57 µM (inactive)	1.87 µM (inactive)	3.04 µM (inactive)	5.68 µM (inactive)	5.79 µM (inactive)	3.36 µM (inactive)	2.47 µM (inactive)	3.72 µM (inactive)	2 µM (inactive)	2.73 µM (inactive)	1.87 µM (inactive)	8.69 µM (inactive)	2.65 µM (inactive)	4.89 µM (inactive)	2.57 µM (inactive)	3.17 µM (inactive)	2.53 µM (inactive)	2.51
N#Cc1c(N2CCOCC2)ncn(-c2ccc(Cl)cc2)c1=O	> 100 µM (inactive)	> 100 µM (inactive)	> 100 µM (inactive)	> 100 µM (inactive)	> 100 µM (inactive)	> 100 µM (inactive)	> 100 µM (inactive)	> 100 µM (inactive)	> 100 µM (inactive)	> 100 µM (inactive)	> 100 µM (inactive)	> 100 µM (inactive)	> 100 µM (inactive)	> 100 µM (inactive)	> 100 µM (inactive)	> 100 µM (inactive)	> 100 µM (inactive)	> 100 µM (inactive)	> 100 µM (inactive)	> 100
O=C1C=C(Nc2cccnc2)c2ccccc2C1=O	12 µM (inactive)	8.95 µM (inactive)	2.61 µM (inactive)	17.6 µM (inactive)	7.73 µM (inactive)	12.2 µM (inactive)	8.71 µM (inactive)	16.1 µM (inactive)	4.58 µM (inactive)	25.6 µM (inactive)	6.55 µM (inactive)	4.13 µM (inactive)	9.25 µM (inactive)	4.15 µM (inactive)	0.372 µM (active)	21.4 µM (inactive)	3.41 µM (inactive)	2.64 µM (inactive)	2.97 µM (inactive)	4.31
